Results as given in patent publication US6962920B2, “Pyrimidine derivatives and methods of making and using these derivatives” (Duquesne University of the Holy Ghost, priority 1992, dated 2005).
Like-named read-outs stand apart in the source and are kept apart here. One block for each compound: values may come before it.

What was measured:
EKVX = assay type: cell-based
MALME-3M = assay: NCI in vitro anti-cancer activity, Melanoma; assay type: cell-based
A253 = assay: Growth inhibition of A253 human squamous carcinoma cell line; assay type: cell-based; details: Table 9, continuous (120 hours) exposure
Procedure: The performance of these compounds was evaluated against MTX.

SNB-75 = assay: NCI in vitro anti-cancer activity, CNS Cancer; assay type: cell-based
R2 cells = assay: Growth inhibition of R2 subline (MTX-transport deficient); assay type: cell-based; details: Homo sapiens; Table 8; continuous (0-120 hours) exposure; read-out: Growth inhibition EC50, R2
KM12 = assay: NCI in vitro anti-cancer activity, Colon Cancer; assay type: cell-based
UO-31 = assay: NCI in vitro anti-cancer activity, Renal Cancer; assay type: cell-based
SNB-19 = assay: NCI in vitro anti-cancer activity, CNS Cancer; assay type: cell-based
R30dm cells = assay: Growth inhibition of R30dm subline (decreased polyglutamate synthase); assay type: cell-based; details: Homo sapiens, Table 8, continuous (0-120 hours) exposure, read-out: Growth inhibition EC50, R30dm
A549/ATCC = assay type: cell-based
786-0 = assay: NCI in vitro anti-cancer activity, Renal Cancer; assay type: cell-based
OVCAR-3 = assay: NCI in vitro anti-cancer activity, Ovarian Cancer; assay type: cell-based
SR = assay: NCI in vitro anti-cancer activity, Leukemia; assay type: cell-based
OVCAR-5 = assay: NCI in vitro anti-cancer activity, Ovarian Cancer; assay type: cell-based
SF-539 = assay: NCI in vitro anti-cancer activity, CNS Cancer; assay type: cell-based
CAKI-1 = assay: NCI in vitro anti-cancer activity, Renal Cancer; assay type: cell-based
TK-10 = assay: NCI in vitro anti-cancer activity, Renal Cancer; assay type: cell-based
SF-268 = assay: NCI in vitro anti-cancer activity, CNS Cancer; assay type: cell-based
HCT-15 = assay: NCI in vitro anti-cancer activity, Colon Cancer; assay type: cell-based
T-47D = assay: NCI in vitro anti-cancer activity, Breast Cancer; assay type: cell-based
SK-MEL-28 = assay: NCI in vitro anti-cancer activity, Melanoma; assay type: cell-based
SW-620 = assay: NCI in vitro anti-cancer activity, Colon Cancer; assay type: cell-based
CCRF-CEM = assay: NCI in vitro anti-cancer activity, Leukemia; assay type: cell-based; details: Table 29, Leukemia
RL DHFR = biological target: T1, RL DHFR (Rattus norvegicus, UniProt Q920D2); assay: Inhibition of DHFR from rat liver; assay type: biochemical
T1 construct: Toxoplasmosis gondii (Tg) and rat liver (RL); from tissue; host or cells: rat liver
T1 sequence (Q920D2 1-187): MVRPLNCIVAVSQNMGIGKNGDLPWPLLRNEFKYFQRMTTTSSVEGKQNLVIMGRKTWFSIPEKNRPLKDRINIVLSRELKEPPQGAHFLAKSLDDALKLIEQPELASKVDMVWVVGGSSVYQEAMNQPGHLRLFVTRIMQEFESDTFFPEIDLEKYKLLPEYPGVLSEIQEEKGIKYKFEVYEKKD
Procedure: The selectivity ratio is a measure of the selectivity of a compound for Pc DHFR or Tg DHFR and is expressed as the IC50 value of the DHFR from rate liver (RL) divided by the IC50 value of either the Pc DHFR or the Tg DHFR, depending on which organism the compounds are being tested against. For example, the selectivity ratio of a compound is calculated by the following formula: [formula]

RPMI-8226 = assay: NCI in vitro anti-cancer activity, Leukemia; assay type: cell-based; details: Table 29, Leukemia
NCI-H460 = assay type: cell-based; details: Table 29, Non-Small Cell Lung Cancer
HL-60 (TB) = assay: NCI in vitro anti-cancer activity, Leukemia; assay type: cell-based; details: Table 29, Leukemia
L. casei DHFR = L. casei DHFR (Lacticaseibacillus casei, UniProt P00381); assay: Inhibition of Lactobacillus casei DHFR; assay type: biochemical; details: at […] 10^−5
L. casei DHFR, sequence (P00381 whole entry): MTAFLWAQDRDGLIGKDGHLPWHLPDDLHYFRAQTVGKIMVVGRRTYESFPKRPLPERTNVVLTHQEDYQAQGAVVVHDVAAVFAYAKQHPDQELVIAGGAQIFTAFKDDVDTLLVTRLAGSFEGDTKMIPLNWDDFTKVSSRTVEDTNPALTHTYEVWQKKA

MOLT-4 = assay: NCI in vitro anti-cancer activity, Leukemia; assay type: cell-based; details: Table 29, Leukemia
SK-MEL-5 = assay: NCI in vitro anti-cancer activity, Melanoma; assay type: cell-based; details: Table 29, Melanoma
UACC-257 = assay: NCI in vitro anti-cancer activity, Melanoma; assay type: cell-based; details: Table 29, Melanoma
NCI/ADR-RES = assay: NCI in vitro anti-cancer activity, breast cancer; details: Table 29, Breast Cancer, NCI/ADRRES
K-562 = assay: NCI in vitro anti-cancer activity; details: Table 29, Leukemia
[1] = Table 29, Non-Small Cell Lung Cancer
[2] = Table 29, Ovarian Cancer, OVCAR-3
[3] = Table 29, Ovarian Cancer, OVCAR-5
[4] = Table 29, Non-Small Cell Lung Cancer, read-out: GI50

EC50 (A253): 0.046 ± 0.004 µM | GI50 (A549/ATCC; Homo sapiens, Non-Small Cell Lung Cancer): < 0.01 µM
SMILES: Nc1nc(N)c2c(CNc3ccc(C(=O)N[C@@H](CCC(=O)O)C(=O)O)cc3)c[nH]c2n1 [Compound 9]
GI50 (EKVX; Homo sapiens, Non-Small Cell Lung Cancer, read-out: GI50): 39.7 µM | GI50 (MALME-3M; Homo sapiens, Melanoma): < 0.01 µM | GI50 (SNB-75; Homo sapiens, SNB-75, CNS Cancer): < 0.01 µM | EC50 (R2 cells): 1.65 ± 0.2 µM | GI50 (KM12; Homo sapiens, KM12, Colon Cancer): 33.2 µM | GI50 (UO-31; Homo sapiens, UO-31, Renal Cancer): < 0.01 µM | GI50 (SNB-19; Homo sapiens, SNB-19, CNS Cancer): > 100 µM | EC50 (R30dm cells): 0.036 ± 0.001 µM | GI50 (786-0; Homo sapiens, 786-0, Renal Cancer): < 0.01 µM | GI50 (OVCAR-3; Homo sapiens, OVCAR-3, Ovarian Cancer): > 100 µM | GI50 (SR; Homo sapiens, Leukemia): > 100 µM | GI50 (OVCAR-5; Homo sapiens, OVCAR-5, Ovarian Cancer): > 100 µM | GI50 (SF-539; Homo sapiens): < 0.01 µM | GI50 (CAKI-1; Homo sapiens, CAKI-1, Renal Cancer): < 0.01 µM | GI50 (TK-10; Homo sapiens, TK-10, Renal Cancer): > 100 µM | GI50 (SF-268; Homo sapiens, SF-268, CNS Cancer): < 0.01 µM | GI50 (HCT-15; Homo sapiens, HCT-15, Colon Cancer): < 0.01 µM | GI50 (T-47D; Homo sapiens, T47D, Breast Cancer): > 100 µM | GI50 (SK-MEL-28; Homo sapiens, SK-MEL-28, Melanoma): > 100 µM | GI50 (SW-620; Homo sapiens, SW-620, Colon Cancer): 3.15 µM

SMILES: COc1ccc(CCc2cn(Cc3ccccc3)c3nc(N)nc(C)c23)cc1 [Compound 113-118]
GI50 (MALME-3M; Table 29, Melanoma): 19.5 µM | GI50 (CCRF-CEM): > 100 µM | GI50 (SNB-75; Table 29, CNS Cancer, SNB-75): > 100 µM | % inhibition RL DHFR (RL DHFR; @ 31 μM): 48% @ | GI50 (RPMI-8226): > 100 µM | GI50 (KM12; Table 29, Colon Cancer, KM12): 48.4 µM | GI50 (NCI-H460): 42.5 µM | GI50 (UO-31; Table 29, Renal Cancer, UO-31): > 100 µM | GI50 (HL-60 (TB)): > 100 µM | GI50 (SNB-19; Table 29, CNS Cancer, SNB-19): > 100 µM | GI50 (A549/ATCC; [1]): 99.8 µM | GI50 (786-0; Table 29, Renal Cancer, 786-0): > 100 µM | GI50 (OVCAR-3; [2]): > 100 µM | GI50 (OVCAR-5; [3]): > 100 µM | % inhibition obtained at the stated concentration, L. casei DHFR (L. casei DHFR): 0% | GI50 (SF-539; Table 29, CNS Cancer): 30.2 µM | GI50 (CAKI-1; Table 29, Renal Cancer, CAKI-1): > 100 µM | GI50 (TK-10; Table 29, Renal Cancer, TK-10): > 100 µM | GI50 (SF-268; Table 29, CNS Cancer, SF-268): > 100 µM | GI50 (HCT-15; Table 29, Colon Cancer, HCT-15): 51.4 µM | GI50 (SK-MEL-28; Table 29, Melanoma, SK-MEL-28): > 100 µM | GI50 (SW-620; Table 29, Colon Cancer, SW-620): > 100 µM

SMILES: COc1ccccc1CCc1cn(Cc2ccccc2)c2nc(N)nc(C)c12 [Compound 113-148]
GI50 (EKVX; [4]): 5.78 µM | GI50 (MALME-3M; Table 29, Melanoma): 18.6 µM | GI50 (CCRF-CEM): 2.97 µM | GI50 (SNB-75; Table 29, CNS Cancer, SNB-75): 17.6 µM | % inhibition RL DHFR (RL DHFR; @ 85 μM): 27% @ | GI50 (MOLT-4): 7.46 µM | GI50 (KM12; Table 29, Colon Cancer, KM12): 12.2 µM | GI50 (NCI-H460): 7.7 µM | GI50 (UO-31; Table 29, Renal Cancer, UO-31): 4.78 µM | GI50 (HL-60 (TB)): 4.81 µM | GI50 (SK-MEL-5): 5.8 µM | GI50 (SNB-19; Table 29, CNS Cancer, SNB-19): 10.9 µM | GI50 (A549/ATCC; [1]): 6.46 µM | GI50 (UACC-257): 6.36 µM | GI50 (786-0; Table 29, Renal Cancer, 786-0): 11.6 µM | GI50 (OVCAR-3; [2]): 14.8 µM | GI50 (SR; Table 29, Leukemia): 3.51 µM | GI50 (OVCAR-5; [3]): 10.8 µM | GI50 (NCI/ADR-RES): 6.75 µM | GI50 (K-562): 5.91 µM | GI50 (SF-539; Table 29, CNS Cancer): 7.2 µM | GI50 (CAKI-1; Table 29, Renal Cancer, CAKI-1): 11.6 µM | GI50 (TK-10; Table 29, Renal Cancer, TK-10): 10.2 µM | GI50 (SF-268; Table 29, CNS Cancer, SF-268): 11 µM | GI50 (T-47D; Table 29, Breast Cancer): 3.84 µM | GI50 (SK-MEL-28; Table 29, Melanoma, SK-MEL-28): 15.7 µM | GI50 (SW-620; Table 29, Colon Cancer, SW-620): 17.1 µM

SMILES: COc1cc(CCc2c[nH]c3nc(N)nc(C)c23)cc(OC)c1OC [Compound 113-154A]
GI50 (EKVX; Non-Small Cell Lung Cancer): selective | GI50 (EKVX; [4]): 5.21 µM | GI50 (MALME-3M; Table 29, Melanoma): 47.4 µM | GI50 (SNB-75; Table 29, CNS Cancer, SNB-75): 27.5 µM | IC50 (RL DHFR; Table 26, read-out: Inhibitory Concentrations (IC50) RL DHFR): 2.3 µM | GI50 (RPMI-8226): 67.4 µM | GI50 (MOLT-4): 38.7 µM | GI50 (KM12; Table 29, Colon Cancer, KM12): 46.5 µM | GI50 (NCI-H460): 19.3 µM | GI50 (UO-31; Table 29, Renal Cancer, UO-31): 34 µM | GI50 (HL-60 (TB)): 41.8 µM | GI50 (SK-MEL-5): 37.3 µM | GI50 (SNB-19; Table 29, CNS Cancer, SNB-19): 67.4 µM | GI50 (A549/ATCC; [1]): 26.1 µM | GI50 (UACC-257): 56.4 µM | GI50 (786-0; Table 29, Renal Cancer, 786-0): 32.8 µM | GI50 (OVCAR-3; [2]): 74.8 µM | GI50 (SR; Table 29, Leukemia): 32.5 µM | GI50 (NCI/ADR-RES): 25.9 µM | GI50 (K-562): 23 µM | GI50 (SF-539; Table 29, CNS Cancer): 20.4 µM | GI50 (CAKI-1; Table 29, Renal Cancer, CAKI-1): 49.5 µM | GI50 (TK-10; Table 29, Renal Cancer, TK-10): 58.9 µM | GI50 (SF-268; Table 29, CNS Cancer, SF-268): 39.5 µM | GI50 (HCT-15; Table 29, Colon Cancer, HCT-15): 24.3 µM | GI50 (T-47D; Table 29, Breast Cancer): 60.2 µM
